From PubChem BioAssay (NCI)
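Interpolation was linear, between the two tested concentrations surrounding the appropriate level; five concentrations were tested over 48 hours in 96-well plates. Abbreviation: GI50, concentration required for 50% inhibition of growth. TGI: concentration producing complete growth inhibition.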

Experiments:
Test in all cases: growth of human tumour cells (NCI), 48 h
[1] = test system: OVCAR-5 ovarian
[2] = test system: HL-60(TB) leukemia
[3] = test system: OVCAR-3 ovarian
[4] = test system: COLO 205 colon
[5] = test system: MOLT-4 leukemia
[6] = test system: SK-MEL-28 melanoma
[7] = test system: HOP-62 NSCLC
[8] = test system: HOP-92 NSCLC
[9] = test system: SK-MEL-5 melanoma
[10] = test system: SNB-75 CNS

In the case of `CN(CCO)/N=N/c1nc[nH]c1C(N)=O`, the TGI [1] is reported as greater than 100 µM, the TGI [2] is reported as greater than 100 µM and the TGI [3] is reported as greater than 100 µM. For the same molecule, the TGI [4] was greater than 100 µM, the TGI [5] was greater than 100 µM and the TGI [6] was greater than 100 µM. It also gave a TGI [7] greater than 100 µM, a TGI [8] greater than 100 µM and a TGI [9] greater than 100 µM. It also gave a TGI [10] greater than 100 µM.
Work on `CCOC(=O)/C(=N/Nc1ccc(Cl)cc1)N1C(=S)C=C(C)NN(C)C1=S` yielded a TGI [1] greater than 100 µM, a TGI [2] greater than 100 µM and a TGI [3] greater than 100 µM. The TGI [4] was greater than 100 µM, the TGI [5] was greater than 100 µM and the TGI [6] was greater than 100 µM. It also gave a TGI [8] greater than 100 µM, a TGI [9] greater than 100 µM and a TGI [10] of 69.3 µM.
Work on `C/C(=N\NC(=S)Nc1ccc(Cl)cc1)c1nc2ncccc2[nH]1` yielded a TGI [1] of 21.3 µM, a TGI [2] greater than 100 µM and a TGI [3] of 10.5 µM. It also gave a TGI [4] of 17.5 µM, a TGI [5] of 22.2 µM and a TGI [6] of 13.3 µM. It also gave a TGI [7] of 18.1 µM, a TGI [8] of 5.75 µM and a TGI [9] of 6.5 µM. It also gave a TGI [10] of 25.4 µM.
`Cc1ncc(CO)c(C=NCCCCCCN=Cc2c(CO)cnc(C)c2O)c1O` was tested, and the TGI [1] was greater than 100 µM, the TGI [2] was greater than 100 µM and the TGI [3] was greater than 100 µM. It also gave a TGI [4] greater than 100 µM, a TGI [5] greater than 100 µM and a TGI [6] greater than 100 µM. It also gave a TGI [7] greater than 100 µM, a TGI [8] greater than 100 µM and a TGI [9] greater than 100 µM. The TGI [10] was greater than 100 µM.
In the case of `Cc1nc(N(CCO)CCO)c2sc(=S)n(-c3ccccc3)c2n1`, the TGI [1] is reported as greater than 100 µM, the TGI [2] is reported as greater than 100 µM and the TGI [3] is reported as greater than 100 µM. The TGI [4] was greater than 100 µM, the TGI [5] was greater than 100 µM and the TGI [6] was greater than 100 µM. For the same molecule, the TGI [7] was greater than 100 µM, the TGI [8] was greater than 100 µM and the TGI [9] was greater than 100 µM. For the same molecule, the TGI [10] was greater than 100 µM.
`NC(=S)N/N=C/c1ccc(OC(=O)COc2ccccc2Cl)cn1` was tested, and the TGI [1] was 97.9 µM, the TGI [2] was 64.9 µM and the TGI [3] was 99.1 µM. For the same molecule, the TGI [4] was greater than 100 µM, the TGI [5] was greater than 88.7 µM and the TGI [6] was greater than 100 µM. It also gave a TGI [7] of 67.4 µM, a TGI [8] greater than 90.3 µM and a TGI [9] greater than 100 µM. For the same molecule, the TGI [10] was greater than 100 µM.
Molecule `COc1cc(C2S/C(=C/c3ccccc3)C(=O)N2c2ccccc2Cl)cc(OC)c1OC` (centres undefined) has a TGI [1] greater than 100 µM, a TGI [4] greater than 100 µM and a TGI [5] greater than 100 µM. For the same molecule, the TGI [6] was greater than 100 µM, the TGI [7] was greater than 100 µM and the TGI [8] was greater than 100 µM. The TGI [9] was 75.1 µM and the TGI [10] was 29.6 µM.
Work on `COC(=O)C1=C(O)C(C(=O)OC)[C@@]2(O)[C@@H](C(=O)OC)CC[C@@H]1[C@@H]2C(=O)OC` (some centres undefined) yielded a TGI [1] of 70.2 µM, a TGI [2] of 76.6 µM and a TGI [3] of 58.8 µM. The TGI [5] was greater than 100 µM, the TGI [6] was greater than 100 µM and the TGI [7] was 75.6 µM. For the same molecule, the TGI [10] was 64.8 µM.
`O=C(O)CN=c1c2ccccc2n(O)c2ccccc12` showed a TGI [1] greater than 100 µM, a TGI [2] of 43 µM and a TGI [3] greater than 100 µM. The TGI [4] was greater than 100 µM, the TGI [5] was greater than 100 µM and the TGI [6] was greater than 100 µM. The TGI [7] was greater than 100 µM, the TGI [9] was greater than 100 µM and the TGI [10] was greater than 100 µM.
With `BrC1=CN2C[n+]3cc(Br)c4ccccc4c3N=C2c2ccccc21` the TGI [1] was 48.7 µM, the TGI [2] was 58.5 µM and the TGI [3] was 8.86 µM. The TGI [4] was 23.1 µM, the TGI [5] was 33.2 µM and the TGI [6] was 6.7 µM. It also gave a TGI [7] of 16.6 µM, a TGI [8] of 29.6 µM and a TGI [9] of 12.8 µM. It also gave a TGI [10] of 10.9 µM.
`COc1cc(Cc2ccc3c(c2C#N)N(C)c2ccccc2S3)cc(OC)c1OC` was tested, and the TGI [1] was greater than 100 µM, the TGI [2] was greater than 100 µM and the TGI [3] was greater than 100 µM. For the same molecule, the TGI [4] was greater than 100 µM, the TGI [5] was greater than 100 µM and the TGI [6] was greater than 100 µM. It also gave a TGI [7] greater than 100 µM and a TGI [8] greater than 100 µM.
With `C/C([O-])=C(/c1nc(-c2ccc([N+](=O)[O-])o2)no1)[n+]1cc(C)ccc1C` the TGI [1] was 37.5 µM, the TGI [2] was 31.6 µM and the TGI [3] was 37.7 µM. It also gave a TGI [4] of 15 µM, a TGI [5] greater than 100 µM and a TGI [6] of 25.6 µM. It also gave a TGI [7] of 37.3 µM, a TGI [8] greater than 100 µM and a TGI [9] of 23.4 µM. It also gave a TGI [10] greater than 49.9 µM.
Work on `Cc1ccc(S(=O)(=O)Nc2cc(Sc3ccccc3)c(O)c3ccccc23)cc1` yielded a GI50 [1] of 7.11 µM, a TGI [1] of 21.3 µM and a GI50 [2] of 1.57 µM. It also gave a TGI [2] of 4.13 µM, a GI50 [3] of 2.85 µM and a TGI [3] of 8.24 µM. The GI50 [4] was 19.5 µM, the TGI [4] was 42.4 µM and the GI50 [5] was 1.96 µM. The TGI [5] was 5.62 µM, the GI50 [6] was 4.4 µM and the TGI [6] was 15 µM. It also gave a GI50 [7] of 7.99 µM, a TGI [7] of 25.5 µM and a GI50 [8] of 2.02 µM. The TGI [8] was 4.57 µM, the GI50 [9] was 3.57 µM and the TGI [9] was 13.1 µM. It also gave a GI50 [10] of 12.9 µM and a TGI [10] of 25.5 µM.
`COc1cc2nc(N3CCC[C@@H](NC4=CC(=O)c5ccccc5C4=O)C3)nc(N)c2cc1OC` gave a GI50 [1] of 2.26 µM, a TGI [1] of 4.85 µM and a GI50 [2] of 1.96 µM. The TGI [2] was 4.05 µM, the GI50 [3] was 2.03 µM and the TGI [3] was 3.81 µM. It also gave a GI50 [4] of 1.93 µM, a TGI [4] of 3.55 µM and a GI50 [5] of 2.34 µM. The TGI [5] was 5.55 µM, the GI50 [6] was 1.72 µM and the TGI [6] was 3.39 µM. The GI50 [7] was 2.16 µM, the TGI [7] was 4.26 µM and the GI50 [9] was 1.77 µM. For the same molecule, the TGI [9] was 3.44 µM, the GI50 [10] was 1.64 µM and the TGI [10] was 3.25 µM.
For `CCOC(=O)C(=O)Nc1cccc(C)c1C`, the TGI [1] was greater than 100 µM, the TGI [2] was greater than 100 µM and the TGI [3] was greater than 100 µM. The TGI [4] was greater than 100 µM, the TGI [5] was greater than 100 µM and the TGI [6] was greater than 100 µM. It also gave a TGI [7] greater than 100 µM, a TGI [8] greater than 100 µM and a TGI [9] greater than 100 µM. The TGI [10] was greater than 100 µM.
